# From US11479814B2, “Compounds for use in PCR systems and applications thereof” (LIFE TECHNOLOGIES CORPORATION, priority 2013, dated 2022)
# System: polymerase
# Test: Amplification plots and Cq of gene targets, Dt4 compared with Tween 20 and Brij-58
# Assay type: biochemical
# Conditions: B2M, GAPDH, RPLPO; FIGS. 16-18
# Text: All amplification plots shown herein graphically represent target nucleic acid amplification as ΔRn (y-axis) as a function of cycle number (x-axis).
# FIGS. 7A through 7D and FIGS. 8A through 8D provide a comparison between Dt4 and Tween® 20 in amplifying four different targets (B2M, GAPDH, RPLPO, and GUSB).
# FIG. 9 provides a comparison between Dt4 and Tween® 20 in amplifying various different targets.
# FIGS. 11A and 11B, FIGS. 12A and 12B, FIGS. 13A and 13B, FIGS. 14A and 14B, FIGS. 15A and 15B show amplification plots comparing the activity of Dt4 to Brij-58 and Tween® 20 at various concentrations in amplifying HPRT1 or PPIA.
# FIGS. 16-18 illustrate that Dt4 may be used at a lower concentration than Tween® 20 in various reactions (e.g., 0.002% Dt4 compared to 0.01% Tween® 20).
substance,measurement,value
Tween® 20,concentration used in amplification reactions,0.01%
